Key:
Assay in all cases: relative viability (nuclei count vs DMSO), 5 days (fraction); higher = more cells survive
VE-821 + Pemetrexed = compound: CS(=O)(=O)c1ccc(-c2cnc(N)c(C(=O)Nc3ccccc3)n2)cc1 [VE-821] + Nc1nc2[nH]cc(CCc3ccc(C(=O)N[C@@H](CCC(=O)O)C(=O)O)cc3)c2c(=O)[nH]1 [Pemetrexed] (partner 0.2 µM)
In short: (§1)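 After 5 days of treatment, lung cancer cells in 1536-well plates were fixed and stained in a single step (final 0.05% Triton X-100, 1% formaldehyde, 1 ug/ml Hoechst) and their nuclei counted on 4× images. Treatment had been applied by pin tool the day after seeding as one drug alone or as a fixed anchor-drug dose with five library-drug doses (not always all listed) in √10 steps. Relative viability is the nuclei count of treated wells divided by that of vehicle wells, and values are medians of duplicate plates.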

Vismodegib + Foretinib = compound: CS(=O)(=O)c1ccc(C(=O)Nc2ccc(Cl)c(-c3ccccn3)c2)c(Cl)c1 [Vismodegib] + COc1cc2c(Oc3ccc(NC(=O)C4(C(=O)Nc5ccc(F)cc5)CC4)cc3F)ccnc2cc1OCCCN1CCOCC1 [Foretinib] (partner 0.25 µM)
In short: as §1

Vismodegib + Pictilisib = compound: CS(=O)(=O)c1ccc(C(=O)Nc2ccc(Cl)c(-c3ccccn3)c2)c(Cl)c1 [Vismodegib] + CS(=O)(=O)N1CCN(Cc2cc3nc(-c4cccc5[nH]ncc45)nc(N4CCOCC4)c3s2)CC1 [Pictilisib] (partner 1 µM)
In short: as §1

Ruxolitinib + Alpelisib = compound: N#CC[C@H](C1CCCC1)n1cc(-c2ncnc3[nH]ccc23)cn1 [Ruxolitinib] + Cc1nc(NC(=O)N2CCC[C@H]2C(N)=O)sc1-c1ccnc(C(C)(C)C(F)(F)F)c1 [Alpelisib] (partner 2 µM)
In short: as §1

Cell Line	relative viability (VE-821 + Pemetrexed; first compound 0.08 µM)	relative viability (VE-821 + Pemetrexed; first compound 0.253 µM)	relative viability (VE-821 + Pemetrexed; first compound 0.8 µM)	relative viability (VE-821 + Pemetrexed; first compound 2.53 µM)	relative viability (VE-821 + Pemetrexed; first compound 8 µM)	relative viability (Vismodegib + Foretinib; first compound 0.08 µM)	relative viability (Vismodegib + Foretinib; first compound 0.253 µM)	relative viability (Vismodegib + Foretinib; first compound 0.8 µM)	relative viability (Vismodegib + Foretinib; first compound 2.53 µM)	relative viability (Vismodegib + Foretinib; first compound 8 µM)	relative viability (Vismodegib + Pictilisib; first compound 0.08 µM)	relative viability (Vismodegib + Pictilisib; first compound 0.253 µM)	relative viability (Vismodegib + Pictilisib; first compound 0.8 µM)	relative viability (Vismodegib + Pictilisib; first compound 2.53 µM)	relative viability (Vismodegib + Pictilisib; first compound 8 µM)	relative viability (Ruxolitinib + Alpelisib; first compound 0.08 µM)	relative viability (Ruxolitinib + Alpelisib; first compound 0.253 µM)	relative viability (Ruxolitinib + Alpelisib; first compound 0.8 µM)	relative viability (Ruxolitinib + Alpelisib; first compound 2.53 µM)	relative viability (Ruxolitinib + Alpelisib; first compound 8 µM)
201T	0.333	0.303	0.324	0.293	0.231	1.17	1.04	0.951	1.08	1.08	0.712	0.67	0.641	0.673	0.66	1.11	1.11	1.27	1.39	1.33
A549	–	–	–	–	–	1.03	0.928	1.05	0.969	0.943	0.507	0.465	0.478	0.56	0.432	0.775	0.708	0.841	0.574	0.495
A-427	0.997	0.949	0.947	0.998	0.474	1	1.01	1.08	1.11	1.11	0.757	0.701	0.635	0.694	0.634	1.09	1.03	1.07	1.06	1.03
ABC-1	–	–	–	–	–	0.894	1.15	1.14	1.08	1.23	0.602	0.841	0.712	0.757	0.772	1.08	1.09	1.17	1.03	0.855
BEN	0.839	0.678	0.719	0.799	0.581	0.871	0.799	0.606	0.642	0.644	0.614	0.602	0.537	0.541	0.583	0.944	0.965	1.16	0.956	1.08
CAL-12T	1.22	1.14	1.04	1.1	0.759	1.08	1.06	1.05	1.06	1.16	–	0.509	0.263	0.241	0.36	1.26	1.31	1.25	1.05	0.78
COR-L23	0.198	0.211	0.196	0.197	0.16	0.957	0.929	0.891	0.973	1.06	0.803	0.658	0.714	0.675	0.786	0.854	0.827	0.821	0.731	0.502
COR-L 105	1.07	0.965	0.74	1.04	0.712	1.23	0.829	1.17	0.82	0.994	0.383	0.371	0.445	0.401	0.453	0.771	1.03	0.84	0.86	0.718
Calu-6	–	–	–	–	–	0.761	0.837	0.863	0.852	0.9	0.934	0.915	0.886	0.918	0.859	1.02	1.03	1.09	0.851	0.673
ChaGo-K-1	0.28	0.333	0.274	0.261	0.253	1.03	0.918	0.92	0.838	0.886	0.784	0.851	0.623	0.666	0.709	–	–	–	–	–
EBC-1	–	–	–	–	–	0.102	0.102	0.0802	0.097	0.105	0.38	0.433	0.386	0.426	0.433	0.833	0.889	0.997	0.876	0.777
EKVX	0.422	0.373	0.419	0.341	0.227	0.744	0.702	1.05	0.724	0.737	0.47	0.462	0.391	0.355	0.395	0.769	0.862	1	0.92	0.832
EMC-BAC-2	0.45	0.391	0.427	0.371	0.308	0.977	0.965	0.95	1	1.04	0.541	0.516	0.588	0.529	0.461	0.725	0.72	0.742	0.637	0.568
EPLC-272H	0.347	0.36	0.218	0.141	0.0907	0.787	0.727	0.68	0.785	0.776	0.319	0.382	0.308	0.317	0.293	0.841	0.903	1.07	1.06	1.01
H3255	0.6	0.583	0.61	0.604	0.517	0.865	0.866	0.822	0.888	0.878	0.483	0.481	0.479	0.471	0.471	–	0.599	0.749	0.521	0.608
HARA	0.253	0.232	0.201	0.169	0.131	0.977	0.992	0.41	0.805	1.03	0.472	0.423	0.417	0.396	0.448	0.862	0.817	0.785	0.697	0.857
HCC-15	0.219	0.23	0.21	0.211	0.179	1.01	0.964	1.04	1.09	1.04	0.754	0.758	0.711	0.748	0.597	0.844	0.875	0.923	0.812	0.73
HCC-44	0.613	0.649	0.596	0.479	0.447	–	–	–	–	–	0.611	0.657	0.546	0.474	0.668	0.793	0.724	0.796	0.602	0.41

From the supplement of paper PMC10307832
